The values that follow come from patent US20050197364A1, “Amide compounds as ion channel ligands and uses thereof” (priority 2003, published 2005).

The first test concerns VR1 receptor. The test can be described thus: High throughput calcium imaging assay (Fura2, Flex Station) of VR1 antagonists, pH 5.1 stimulus. The test is classed as cell-based. The note with it: 1 uM compound; inhibition of calcium ion influx induced by capsaicin stimulation.
Description: Therefore the functional activity of compounds at the VR1 receptor may be determined by measuring changes in intracellular calcium levels in 293 cells expressing capsaicin-insensitive VR1 receptor variants. A dual wavelength ratiometric dye, Fura2, was used as an indicator of relative levels of calcium ions in a 96 well format using a bench top scanning fluorometer with integrated fluidics and temperature control (Flex Station, Molecular Devices).
293 cells were grown on PDL coated 96-well black-walled plates, in the presence of a DMEM medium containing 5% Penstrep, 5% Glutamax, 200 ug/mL Hygromycin, 5 μg/mL Blasticide and 10% heat inactivated FBS. Prior to assay, the cells were loaded with 5 μg/mL Fura2 in normal saline solution at 37° C. for 40 minutes. Cells were then washed with normal saline to remove the dye.
The assay consists of two stages; a pre-treatment phase followed by a treatment phase.
50 μl of a compound solution was added to the cells (Pre-treatment). Immediately following, 50 μl of the test compound in a saline solution at pH 5.1 was added. Fura2 was excited at 340 and 380 nM to indicate relative calcium concentration. Changes in wavelength measurements were made throughout the course of the experiment in 4 second intervals over a period of 3 minutes. Responses were measured as peak fluorescence ratio after test compound addition minus baseline fluorescence ratio prior to pre-treatment and were calculated using SoftMaxPro softwareData were expressed as percentage inhibition calculated using Excel as follows: [formula]
Consider `COc1ccccc1NC(=O)c1ccc(-c2ncccc2Cl)cc1` [Compound 13], for which the “% Inhibition @ 1 uM” value was “+ + + + (compound exhibited 75% or greater inhibition of calcium ion influx induced by capsaicin stimulation)”.
For `COc1ccc(NC(=O)c2ccc(-c3ncccc3Cl)cn2)cc1O` [Compound 338], the “% Inhibition @ 1 uM” value is on record as “+ + (“+ +” compound exhibited 25-50% inhibition of calcium ion influx induced by capsaicin stimulation.)”.
Still for that read-out and setting: the value for `O=C(Nc1cccc(Cl)c1)c1ccc(-c2ncccc2Cl)cc1F` [Compound 71] was “+ (compound exhibited 0-25% inhibition of calcium ion influx induced by capsaicin stimulation)”.
Take `COc1cc(C(=O)Nc2ccncn2)ccc1-c1ncccc1Cl` [Compound 225]: the “% Inhibition @ 1 uM” value is “+ + (“+ +” compound exhibited 25-50% inhibition of calcium ion influx induced by capsaicin stimulation.)”.
Turning to `O=C(Nc1ccc2c(c1)Cc1ccccc1-2)c1ccc(-c2ncccc2Cl)cc1` [Compound 36], the “% Inhibition @ 1 uM” value is on record as “+ + (compound exhibited 25-50% inhibition of calcium ion influx induced by capsaicin stimulation)”.
As to `CC(C)(C)NC(=O)c1ccc(-c2ncccc2Cl)c(F)c1` [Compound 110], the “% Inhibition @ 1 uM” value was “+ (compound exhibited 0-25% inhibition of calcium ion influx induced by capsaicin stimulation)”.
On the same count and under the same terms, the entry for `O=C(Nc1ccc(C(F)(F)F)cc1)c1ccc(-c2ncccc2Cl)cn1` [Compound 308] is “+ (“+” compound exhibited 0-25% inhibition of calcium ion influx induced by capsaicin stimulation.)”; for `O=C(Nc1ccc(F)cc1)c1ccc(-c2ncccc2Cl)cn1` [Compound 291] it is “+ (“+” compound exhibited 0-25% inhibition of calcium ion influx induced by capsaicin stimulation.)”; for `O=C(Nc1ccc(Cl)cc1Cl)c1ccc(-c2ncccc2Cl)cc1` [Compound 16] it is “+ (compound exhibited 0-25% inhibition of calcium ion influx induced by capsaicin stimulation)”.
Regarding `COc1cc(C(=O)Nc2ccccc2C#N)ccc1-c1ncccc1Cl` [Compound 192], the “% Inhibition @ 1 uM” value is recorded as “+ (compound exhibited 0-25% inhibition of calcium ion influx induced by capsaicin stimulation)”.
For `COc1cc(C(=O)Nc2ccc(Cl)cc2S(=O)(=O)O)ccc1-c1ncccc1Cl` [Compound 261], the “% Inhibition @ 1 uM” value was “+ (“+” compound exhibited 0-25% inhibition of calcium ion influx induced by capsaicin stimulation.)”.
In the case of `COc1ccc(NC(=O)c2ccc(-c3ncccc3Cl)cc2F)cc1Cl` [Compound 79], the “% Inhibition @ 1 uM” value is given as “+ + (compound exhibited 25-50% inhibition of calcium ion influx induced by capsaicin stimulation)”.
The same measure, in the same setting: the value for `COc1cc(C(=O)Nc2ccc3cn[nH]c3c2)ccc1-c1ncccc1Cl` [Compound 247] was “+ + (“+ +” compound exhibited 25-50% inhibition of calcium ion influx induced by capsaicin stimulation.)”; that for `CC(C)c1cccc(NC(=O)c2ccc(-c3ncccc3Cl)cc2F)c1` [Compound 69] was “+ (compound exhibited 0-25% inhibition of calcium ion influx induced by capsaicin stimulation)”.
Regarding `COc1ccc(NC(=O)c2ccc(-c3ncccc3Cl)c(OC)c2)cc1Cl` [Compound 212], the “% Inhibition @ 1 uM” value is reported as “+ + + (“+ + +” compound exhibited 50-75% inhibition of calcium ion influx induced by capsaicin stimulation.)”.
On the same count and under the same terms, the value for `COc1cc(C(=O)Nc2cccc(C(F)(F)F)c2)ccc1-c1ncccc1Cl` [Compound 250] was “+ + (“+ +” compound exhibited 25-50% inhibition of calcium ion influx induced by capsaicin stimulation.)”; that for `O=C(Nc1cccc(OC(F)(F)F)c1)c1ccc(-c2ncccc2Cl)cn1` [Compound 344] was “+ + (“+ +” compound exhibited 25-50% inhibition of calcium ion influx induced by capsaicin stimulation.)”.
With `N#Cc1cccc(NC(=O)c2ccc(-c3ncccc3Cl)cn2)c1` [Compound 299], the “% Inhibition @ 1 uM” value is “+ + + + (“+ + + +” compound exhibited 75% or greater inhibition of calcium ion influx induced by capsaicin stimulation.)”.
The same measure, in the same setting: the value for `COc1ccc(NC(=O)c2ccc(-c3ncccc3Cl)cc2)cc1Cl` [Compound 17] was “+ (compound exhibited 0-25% inhibition of calcium ion influx induced by capsaicin stimulation)”; that for `Cc1cc(C)nc(NC(=O)c2ccc(-c3ncccc3Cl)cc2)c1` [Compound 37] was “+ (compound exhibited 0-25% inhibition of calcium ion influx induced by capsaicin stimulation)”.
Same read-out and setting: the value for `O=C(Nc1ccc2ccccc2c1)c1ccc(-c2ncccc2Cl)cn1` [Compound 331] was “+ + (“+ +” compound exhibited 25-50% inhibition of calcium ion influx induced by capsaicin stimulation.)”; that for `O=C(Nc1ccccc1O)c1ccc(-c2ncccc2Cl)cc1F` [Compound 67] was “+ (compound exhibited 0-25% inhibition of calcium ion influx induced by capsaicin stimulation)”; that for `O=C(Nc1ccccc1Cl)c1ccc(-c2ncccc2Cl)cc1` [Compound 15] was “+ (compound exhibited 0-25% inhibition of calcium ion influx induced by capsaicin stimulation)”.
The same measure, in the same setting: the value for `O=C(Nc1ccnc(Cl)c1)c1ccc(-c2ncccc2Cl)cc1` [Compound 33] was “+ + + + (compound exhibited 75% or greater inhibition of calcium ion influx induced by capsaicin stimulation)”; that for `O=C(Nc1cccnc1Cl)c1ccc(-c2ncccc2Cl)cc1` [Compound 30] was “+ + (compound exhibited 25-50% inhibition of calcium ion influx induced by capsaicin stimulation)”.
As to `O=C(Nc1ccc(F)cc1)c1ccc(-c2ncccc2Cl)c(F)c1` [Compound 114], the “% Inhibition @ 1 uM” value is on record as “+ (compound exhibited 0-25% inhibition of calcium ion influx induced by capsaicin stimulation)”.
On to `N#Cc1ccccc1NC(=O)c1ccc(-c2ncccc2Cl)cn1` [Compound 292], for which the “% Inhibition @ 1 uM” value is “+ (“+” compound exhibited 0-25% inhibition of calcium ion influx induced by capsaicin stimulation.)”.
Turning to `Cc1ccnc(NC(=O)c2ccc(-c3ncccc3Cl)cn2)c1` [Compound 318], the “% Inhibition @ 1 uM” value is on record as “+ (“+” compound exhibited 0-25% inhibition of calcium ion influx induced by capsaicin stimulation.)”.
Still for that read-out and setting: the value for `COc1cc(C(=O)Nc2ccc(-c3cnc[nH]3)cc2)ccc1-c1ncccc1Cl` [Compound 260] was “+ + + (“+ + +” compound exhibited 50-75% inhibition of calcium ion influx induced by capsaicin stimulation.)”; that for `COc1ccc(NC(=O)c2ccc(-c3ncccc3Cl)c(OC)c2)cn1` [Compound 230] was “+ + (“+ +” compound exhibited 25-50% inhibition of calcium ion influx induced by capsaicin stimulation.)”.
Still for that read-out and setting: the value for `O=C(Nc1ccnc(Cl)c1)c1ccc(-c2ncccc2Cl)cn1` [Compound 325] was “+ (“+” compound exhibited 0-25% inhibition of calcium ion influx induced by capsaicin stimulation.)”; that for `N#Cc1cccc(NC(=O)c2ccc(-c3ncccc3Cl)cc2)c1` [Compound 22] was “+ (compound exhibited 0-25% inhibition of calcium ion influx induced by capsaicin stimulation)”.
Consider `COc1cc(C(=O)Nc2cccc(Cl)c2)ccc1-c1ncccc1Cl` [Compound 193], for which the “% Inhibition @ 1 uM” value was “+ (compound exhibited 0-25% inhibition of calcium ion influx induced by capsaicin stimulation)”.
Still for that read-out and setting: the value for `CCCCc1ccc(NC(=O)c2ccc(-c3ncccc3Cl)c(OC)c2)cc1` [Compound 204] was “+ + (“+ +” compound exhibited 25-50% inhibition of calcium ion influx induced by capsaicin stimulation.)”.
Consider `CC(C)(CO)NC(=O)c1ccc(-c2ncccc2Cl)cc1` [Compound 41], for which the “% Inhibition @ 1 uM” value was “+ (compound exhibited 0-25% inhibition of calcium ion influx induced by capsaicin stimulation)”.
Still for that read-out and setting: the value for `O=C(Nc1ccncc1)c1ccc(-c2ncccc2Cl)cn1` [Compound 313] was “+ + + (“+ + +” compound exhibited 50-75% inhibition of calcium ion influx induced by capsaicin stimulation.)”.
As to `O=C(Nc1cccc(Cl)c1)c1ccc(-c2ncccc2Cl)c(F)c1` [Compound 116], the “% Inhibition @ 1 uM” value is “+ (compound exhibited 0-25% inhibition of calcium ion influx induced by capsaicin stimulation)”.
For the compound `O=C(Nc1ccc2ncccc2c1)c1ccc(-c2ncccc2Cl)cn1` [Compound 327], the “% Inhibition @ 1 uM” value was “+ (“+” compound exhibited 0-25% inhibition of calcium ion influx induced by capsaicin stimulation.)”.
For the compound `Cc1cc(C)nc(NC(=O)c2ccc(-c3ncccc3Cl)c(F)c2)c1` [Compound 139], the “% Inhibition @ 1 uM” value was “+ (compound exhibited 0-25% inhibition of calcium ion influx induced by capsaicin stimulation)”.
Take `COc1ccc(NC(=O)c2ccc(-c3ncccc3Cl)c(F)c2)cc1O` [Compound 170]: the “% Inhibition @ 1 uM” value is “+ + (compound exhibited 25-50% inhibition of calcium ion influx induced by capsaicin stimulation)”.
Still for that read-out and setting: the entry for `Cc1cccnc1NC(=O)c1ccc(-c2ncccc2Cl)cc1F` [Compound 95] is “+ (compound exhibited 0-25% inhibition of calcium ion influx induced by capsaicin stimulation)”.
Still for that read-out and setting: the value for `Cc1ccc(NC(=O)c2ccc(-c3ncccc3Cl)c(F)c2)c(C)c1` [Compound 128] was “+ + + + (compound exhibited 75% or greater inhibition of calcium ion influx induced by capsaicin stimulation)”; that for `COc1cc(C(=O)Nc2ccc(F)cc2[N+](=O)[O-])ccc1-c1ncccc1Cl` [Compound 210] was “+ + + + (“+ + + +” compound exhibited 75% or greater inhibition of calcium ion influx induced by capsaicin stimulation.)”; that for `COc1ccc(NC(=O)c2ccc(-c3ncccc3Cl)cc2F)cn1` [Compound 103] was “+ (compound exhibited 0-25% inhibition of calcium ion influx induced by capsaicin stimulation)”.
On the same count and under the same terms, the entry for `COc1ccc(NC(=O)c2ccc(-c3ncccc3Cl)cn2)cn1` [Compound 324] is “+ + (“+ +” compound exhibited 25-50% inhibition of calcium ion influx induced by capsaicin stimulation.)”.
With `COc1cc(C(=O)Nc2ccncc2)ccc1-c1ncccc1Cl` [Compound 218], the “% Inhibition @ 1 uM” value is given as “+ + + + (“+ + + +” compound exhibited 75% or greater inhibition of calcium ion influx induced by capsaicin stimulation.)”.
As to `CC(C)(NC(=O)c1ccc(-c2ncccc2Cl)cc1F)c1ccccc1` [Compound 66], the “% Inhibition @ 1 uM” value is given as “+ (compound exhibited 0-25% inhibition of calcium ion influx induced by capsaicin stimulation)”.

The test is the same for the next values; noted with them: 1 uM compound; inhibition of calcium ion influx induced by capsaicin stimulation; 1 µM.
For the compound `O=C(Nc1ccc2ccccc2c1)c1ccc(-c2ncccc2Cl)cc1` [Compound 57], the “% Inhibition @ 1 uM” value is on record as “+ + + + (compound exhibited 75% or greater inhibition of calcium ion influx induced by capsaicin stimulation)”.
